Tested on: degranulation of cells to release β-hexosaminidase
Experiment: β-hexosaminidase release from cells, determined by ELISA (allergy triggering / allergy induction)
Format: cell-based
Conditions: Ctr results of FIG. 1, stimulant alone
Procedure: […] Comparisons of the sea grape extract (I) alone group, refined sea grape (I) alone group and the control group.
Calcium ionophore A23187 stimulates degranulation of cells to release the allergic mediator, β-hexosaminidase, the concentration of β-hexosaminidase is determined by enzyme-linked immunosorbent assay (ELISA).

In the case of CNc1ccc2oc(C[C@H]3O[C@@]4(CC[C@H]3C)O[C@H]([C@H](C)C(=O)c3ccc[nH]3)[C@H](C)C[C@H]4C)nc2c1C(=O)O [Calcium ionophore A23187], the “release of β-hexosaminidase” value is reported as “induces release”.
